Test results published in US9006426B2, “Squaric acid derivatives as inhibitors of the nicotinamide” (Topotarget A/S, priority 2008, dated 2015).

System: A2780 cells
Experiment: In vitro cell proliferation assay (SRB assay)
Assay type: cell-based
Conditions: Homo sapiens, 72 h incubation, SRB staining
Method: In Vitro Cell Proliferation Assay (SRB Assay)
A2780 cells were seeded in 96-well plates at 2000 cells/well in 100 μL of culture medium, 4 wells were left empty for media only controls.
After 24 h the compound titrations were performed, in a separate dilution plate, by serially diluting the compounds of general formula (I) in culture medium. A 100 μL of each dilution was added to the plated cells, this was done in quadruplicate, and controls (e.g. DMSO and blanks) were included. The plates were incubated for 72 h at 37° C. in a CO2 incubator. 50 μL cold 50% trichloroacetic acid was then added to each well. After 1 h the supernatant was discarded and the wells were washed 5 times with tap water and dried at room temperature. […] Bound stain was subsequently solubilized by addition of 200 μL 10 mM Tris pH 10.5 to each well, and the plates were shaken for at least 30 minutes, and the absorbance read on an automated plate reader at 515 nm. Using the nine absorbance measurements [time zero, (Tz), control growth, (C), and test growth in the presence of drug at the seven concentration levels (Ti)], the percentage growth is calculated at each of the drug concentrations levels after averaging the quadruplet wells. Percentage growth inhibition is calculated as: [(Ti−Tz)/(C−Tz)]×100 for concentrations for which Ti>/=Tz [(Ti−Tz)/Tz]×100 for concentrations for which Ti<Tz. […]

IC50: 40 nM
SMILES: O=c1c(NCCCCCCOc2ccc(Cl)cc2)c(Nc2ccncc2)c1=O [SQ-7B, 3-(6-(4-chlorophenoxy)hexylamino)-4-(pyridine-4-ylamino)-cyclobut-3-ene-1,2-dione]
